Paper PMC13476077, “Systematic comparison of temporal hepatotoxicant-induced gene network responses across 3 liver test systems” (Toxicological Sciences, 2026)

Assay: Pharmacokinetic properties from the literature
Type: in vivo
Conditions: Minimal PBPK model; Derived using WinNonLin, ref Huang et al. (1986)
Source text: Compound-specific physicochemical properties (e.g., pKa, fraction unbound in plasma, etc.) are detailed in Table S1B and were used to parameterize each model.

In the case of `CC(=O)N1CCN(c2ccc(OCC3COC(Cn4ccnc4)(c4ccc(Cl)cc4Cl)O3)cc2)CC1` (stereo not shown) [Ketoconazole], the Vss is reported as 0.345 L/kg.
